# Experimental data published in US6355785B1, “Guanosine-rich oligonucleotide integrase inhibitors” (Aronex Pharmaceuticals, Inc., priority 1993, dated 2002).
# Several values for one entry are separate records, joined by “and”; a condition that tells them apart may be missing. Equal values may be shown once. Read-outs that look alike come from different tables or passages of the source. Marks after values point to notes of the source that are not given here.
# Tests used:
# HIV-1SKI = test: Single cycle analysis of HIV-1 cDNA, CEM-SS cells; format: cell-based; conditions: 10- to 100-fold over IC50
# [1] = system: HIV-1 strains (SKI, RF, DV, IIIB, ADP/141); test: microbe, parasite or virus in culture; format: cell-based
# [2] = molecular target: recombinant HIV-1 integrase (wild-type) (Human immunodeficiency virus type 1 group M subtype B, UniProt P12497); test: HIV-1 integrase 3′-processing and strand transfer assays; format: biochemical; set-up: Purified recombinant HIV-1 integrase enzyme (wild-type) was a generous gift from Dr. R. Craigie; purchased gift of Dr. R. Craigie, Laboratory of Molecular Biology, NIDDK (not bought)
# Method: Integrase enzyme assays. Purified recombinant HIV-1 integrase enzyme (wild-type) was a generous gift from Dr. R. Craigie, Laboratory of Molecular Biology, National Institute of Diabetes and Digestive and Kidney Diseases. The enzyme (0.25 μM) was preincubated in reaction buffer at 20° C. for 30 minutes. All 3′-processing and strand-transfer reactions were performed as described previously by Fresen et al. (Fresen, et al., Proc. Natl. Acad. Sci. USA 90:2399-2403 (1993)) and Mazumder et al. (Mazumder, et al., Proc. Natl. Acad. Sci. USA 91:5771-5775 (1994)). Enzyme reactions were quenched by the addition of Maxam-Gilbert loading dye, and an aliquot was electrophoresed on a denaturing 20% polyacrylamide gel. Gels were then dried and subjected to autoradiography using Kodax XAR-2 film or exposed in a Molecular Dynamics Phospholmager cassette.
# Integrase was preincubated at a final concentration of 200 (for HIV-1 and HIV-2) or 600 nM (for FIV and SIV) with inhibitor in reaction buffer (50 mM Nac1, 1 mM HEPES, pH 7.5, 50 μM dithiothreitol, 10% glycerol (wt/vol), 7.5 mM MnCl2 or MgCL2 (when specified), 0.1 mg/mL bovine serum albumin, 20 mM 2-mercaptoethanol, 10% dimethyl sulfoxide, and 25 mM MOPS, pH 7.2) at 30° C. for 30 minutes. When magnesium was used as the divalent metal ion, polyethylene glycol was added at a final concentration of 5% to increase activity as previously described (Engelman & Craigie, 1995). Preincubation for 30 minutes of the enzyme with inhibitor was performed to optimize increases the inhibitory activity in the 3′-processing reaction (Fesen et al., 1994). Then, 30 nM of the 5′-end ^32P-labeled linear oligonucleotide substrate was added, and incubation was continued for an additional 1 hr. The final reaction volume was 16 μL.
# Electrophoresis and quantitation. Reactions were quenched by the addition of an equal volume […] of loading dye (98% deionized formamide, 10 mM EDTA, 0.025% xylene cyanol, 0.025% bromophenol blue). An aliquot (5 μL) was electrophoresed on a denaturing 20% polyacrylamide gel (0.09 M Tris-borate pH 8.3, 2 mM EDTA, 20% acrylamide, 8M urea). Gels were dried, exposed in a Molecular Dynamics Phosphorimager cassette, and analyzed using a Molecular Dynamics phosphorimager (Sunnyvale, Calif.). Percent inhibition was calculated using the following equation:
# where C, N, and D are the fractions of 21mer substrate converted to 19mer (3′-processing product) or strand transfer products for DNA alone, DNA plus integrase, and integrase plus drug, respectively.
# Antiviral assay. The RF laboratory strain of HIV-1 was used to infect established cell lines for one hour at 37° C. prior to washing and resuspension in medium containing increasing concentrations of drug. […] Purified recombinant HIV-1 integrase enzyme (wild-type) was a generous gift from Dr. Craigie, Laboratory of Molecular Biology, NIDDK. All 3′-processing and strand-transfers were performed as described previously by Fresen et al. (Fresen et al. (1993) Proc. Natl. Acad. Sci. VSA 90, 2399-2403) and Mazurnder et al. (Mazumder et al. (1994) Proc. Natl. Acad. Sci. USA 91, 5771-75).
# [3] = molecular target: HIV-1 integrase (wild-type and deletion mutants) (Human immunodeficiency virus type 1 group M subtype B, UniProt P12497); test: UV crosslinking DNA binding experiments; conditions: enzyme preincubated with oligo
# Method: UV crosslinking experiments. The method used has been described by Engleman et al. Engelman, et al., J. Virol. 68, 5911-5917 (1994). Briefly, integrase (at the indicated concentration) was incubated with substrate in reaction buffer as above for 5 minutes at 30° C. Reactions were then irradiated with a UV transilluminator (254 nm wavelength) from 3 cm above (2.4 mW/cm2) at room temperature for 10 minutes. An equal volume (16 μL) of 2X SDS-PAGE buffer (100 mM Tris, pH 6.8, 4% 2-mercaptoethanol, 4% SDS, 0.2% bromophenol blue, 20% glycerol) was added to each reaction. Twenty μL aliquots were heated at 95° C. for 3 minutes prior to loading on a 12% or 18% SDS-polyacrylamide gel. The gel was run at 120 V for 1.5 hours, dried, and exposed in a Phosphorlmager cassette. […] For the competition experiments (FIG. 29), integrase (200 nM) was preincubated with either the radiolabeled viral DNA substrate (20 nM) or T30177 (20 nM) for 5 minutes at 30° C. prior to the addition of competitor DNA at the indicated concentration.
# HIV-1RF = test: HeLa-CD4-LTR-β-galactosidase cell virus infection assay; format: cell-based
# HIV-1DV [4] = test: HIV-1 p24 production in SUP T1 cells; format: cell-based; conditions: for Percent p24 relative to infected untreated control, Day 7 / Percent p24 relative to infected untreated control, Day 11 / Percent p24 relative to infected untreated control, Day 4: 2.5 uM; for Percent p24 relative to infected untreated control, Day 7 / Percent p24 relative to infected untreated control, Day 11: drug removed day 4; for Percent p24 relative to infected untreated control, Day 4: medium replaced day 4; for IC50: SUP T1, HIV-1DV, four days
# HIV-1 strain DV = test: HIV-1 induced syncytia formation assay in SUP T1 cells; format: cell-based
# HIV-1 RT = HIV-1 RT (Human immunodeficiency virus type 1 group M subtype B, UniProt P04585); test: In vitro inhibition of HIV-1 RT (kinetic analysis); format: biochemical; conditions: for IC50: read-out: ID50 (the source's name)
# [5] = molecular target: HIV-1 gp120 interaction with CD4 (Human immunodeficiency virus type 1 group M subtype B, UniProt P04578)
# [6] = Oligomer folding by circular dichroism
# [7] = Thermal denaturation of oligomer fold (UV, Tm); format: physicochemical
# HIV-1DV [8] = test: Analysis of HIV-1 RNA and DNA in single cycle assays, SUP T1; format: cell-based
# [9] = molecular target: T1, recombinant RT (HIV-1BH10) (Human immunodeficiency virus type 1 group M subtype B, UniProt P03366); test: Reverse transcriptase enzyme inhibition assays; format: biochemical; conditions: read-out: IC50 recombinant HIV-1 RT
# T1 construct: Purified recombinant RT (HIV-1BH10) was obtained from the University of Alabama; purchased University of Alabama, Center for AIDS research (obtained from)
# [10] = system: HIV-1 laboratory isolates; test: HIV-1 infection of PBMCs (p24); format: cell-based; conditions: HIV-1 IIIB, read-out: IC50 viral production
# HIV-1 clinical isolates = test: microbe, parasite or virus in culture; format: cell-based; conditions: PBLs, read-out: IC50 viral production
# [11] = HIV-1 IIIB, CEM-SS or MT4, read-out: Antiviral Assay IC50 IIIB
# [12] = HIV-1 RF, CEM-SS or MT4, read-out: Antiviral Assay IC50 RF
# [13] = HIV-1 SKI, CEM-SS or MT4, read-out: Antiviral Assay IC50 SKI
# [14] = 3′-processing, read-out: Anti-Integrase Assay IC50 3′-proc
# [15] = read-out: Enzyme IC50 3-′process
# [16] = strand transfer, read-out: Anti-Integrase Assay IC50 strand tran.
# [17] = anti-HIV-1 virus production, read-out: Cell Culture IC50
# [18] = SUP T1, HIV-1DV, four days, read-out: IC50 Syn (syncytium inhibition)
# [19] = cell culture, read-out: IC50 HIV-1RF
compound,measurement,setting,value
CC(C)OC(=O)c1cc(NC(=S)OC(C)C)ccc1Cl [UC38],"viral cDNA 12 hours post-infection, drug added at time of infection",HIV-1SKI,no detectable viral DNA
same,IC50,[1]; [11],90 nM
same,IC50,[1]; [12],20 nM
same,IC50,[1]; [13],90 nM
"5′-ggttggtgtggttgg-3′ [T30659, reference compound]",IC50,[2]; [14],> 500 nM
same,IC50,[2]; [15],750 nM
same,IC50,[2]; [16],> 500 nM
same,inhibition of integrase binding to radiolabeled U5 DNA substrate,[3],only modest inhibition of DNA binding
same,IC50,[1]; [11],> 20000 nM
same,IC50,[1]; [12],> 20000 nM
same,IC50,[1]; [13],2810 nM
same,IC50,[1]; [17],> 20000 nM
"5′-GTGATGGGTGGGTGGGT-3′ (phosphorothioate termini, further chemistry not given here) [T30526, pPT, dA for dG, tetrad-disrupted mutant of T30177]",IC50,[2]; [16],123 nM
same,IC50,[1]; [12],11700 nM
same,less potent than T30177 at inhibiting virus-infected cell β-galactosidase production,HIV-1RF,10-15 fold
5′-gtggtgggtgggtgggtggtgggtggtggtgtgggtgggtggtg-3′ [I100-21],"Percent p24 relative to infected untreated control, Day 7",HIV-1DV [4],0.0%
same,"Percent p24 relative to infected untreated control, Day 11",HIV-1DV [4],0.0%
same,"Percent p24 relative to infected untreated control, Day 4",HIV-1DV [4],0.0%
same,IC50,HIV-1DV [4],< 200 nM
same,IC50,HIV-1 strain DV; [18],225 nM
same,Ki,HIV-1 RT,1 nM
same,IC50,HIV-1 RT,4 nM
same,inhibition of detection of immobilized gp120 by HRP-α-gp120 antibody,[5]; control experiment,slightly inhibit
same,IC50,"[5]; read-out: ID50 [CD4], oligo binding to immobilized CD4",48 nM
same,IC50,"[5]; read-out: ID50 [gp 120], oligo preincubated with soluble gp120",70 nM
5′-gggtgggtgggtgggt-3′ [T30695],IC50,[2]; [15],20 nM
same,IC50,[2]; read-out: Enzyme IC50 Stran Trans,60 nM
same,IC50,[2]; read-out: IC50 3′-PROC,43 ± 17 nM
same,IC50,[2]; read-out: IC50 STR · TRA,24 ± 4 nM
same,IC50,[1]; [17],70 nM
same,IC50,[1]; [19],70 nM
same,"midpoint of K+ induced folding transition (CD, 264 nm)","[6]; KCl, 25° C., 20 mM Li3PO4",~0.02 mM
same,midpoint of Rb+ induced folding transition (CD),[6]; RbCl,0.5 mM
same,Tm,[7]; 1 mM KCl,67 °C
same,Tm,"[7]; 10 mM KCl, calculated from linear fit",87* ° C.
same,Tm,"[7]; 180 mM KCl, calculated from linear fit",110* ° C.
"5′-gtggtgggtgggtgggt-3′ (GTGGTGGGTGGGTGGGT; phosphodiester, 3'-propanolamine, further chemistry not given here) [I100-15, 17 mer PD, 3′-propanolamine]",viral DNA synthesis (PCR),HIV-1DV [8]; 36 hr post-infection,minimal
same,HIV-1 specific transcript (RT-PCR),HIV-1DV [8]; drug added at zero hours,reduced level of HIV-1 specific transcript
same,"Percent p24 relative to infected untreated control, Day 7",HIV-1DV [4],0.0%
same,"Percent p24 relative to infected untreated control, Day 11",HIV-1DV [4],0.0%
same,"Percent p24 relative to infected untreated control, Day 4",HIV-1DV [4],0.0%
same,IC50,HIV-1DV [4],80 nM
same,T.I. (therapeutic index),HIV-1 strain DV,>200
same,IC50,HIV-1 strain DV; [18],125 nM
same,IC50,"HIV-1 strain DV; size variants of I100-15, read-out: IC50 Syn.",160 nM
same,Ki,HIV-1 RT,> 5000 nM
same,IC50,HIV-1 RT,> 5000 nM
"5′-gtggttggtgggttggt-3′ (GTGGTTGGTGGGTTGGT; phosphorothioate termini, further chemistry not given here) [T30677, pPT variant T30177]",IC50,[2]; [15],620 nM
same,IC50,[2]; read-out: IC50 STR · TRA,620 nM
same,IC50,[1]; [17],> 40000 nM
same,IC50,[1]; [19],> 40000 nM
same,Tm,"[7]; 1 mM KCl, calculated from linear fit Tm vs Log[KCl]",17* ° C.
same,Tm,[7]; 10 mM KCl,27 °C
same,Tm,[7]; 180 mM KCl,40 °C
"Nc1ccn([C@H]2CC[C@@H](CO)O2)c(=O)n1 [ddC, 2′,3′-dideoxycytidine]",IC50,[2]; [14],> 1000 nM
same,IC50,[2]; [16],> 1000 nM
same,"viral cDNA 12 hours post-infection, drug added at time of infection",HIV-1SKI,no detectable viral DNA
same,IC50,"[1]; Human immunodeficiency virus 1, IIIB, CEM-SS, read-out: Antiviral Assay IC50 IIIB, HIV-1 IIIB, CEM-SS or MT4",78 nM
same,IC50,"[1]; Human immunodeficiency virus 1, IIIB, CEM-SS, read-out: Antiviral Assay IC50 RF, HIV-1 RF, CEM-SS or MT4",57 nM
same,IC50,"[1]; Human immunodeficiency virus 1, IIIB, CEM-SS, read-out: Antiviral Assay IC50 SKI, HIV-1 SKI, CEM-SS or MT4",260 nM
same,IC50,"[1]; Human immunodeficiency virus 1, IIIB, CEM-SS, read-out: IC50 virus production, HIV-1 RF, CEM-SS, MOI 0.01",57 nM
"Cc1cn([C@H]2C[C@H](N=[N+]=[N-])[C@@H](COP(=O)(O)OP(=O)(O)OP(=O)(O)O)O2)c(=O)[nH]c1=O [AZT 5′-triphosphate, reference compound]",IC50,"[9]; template gapped duplex DNA, duplicate experiments",470 nM and 400 nM
same,IC50,"[9]; template poly(rA)p(dT)12-18, duplicate experiments",590 nM and 600 nM
"O=c1[nH]cnc2c1ncn2[C@H]1CC[C@@H](CO)O1 [ddI, 2′,3′-dideoxyionsine]",IC50,[10],740 ± 50 nM
same,IC50,HIV-1 clinical isolates; clinical isolate 942751,2200 ± 20 nM
same,IC50,HIV-1 clinical isolates; clinical isolate BAKI (SI),2610 ± 3 nM
same,IC50,HIV-1 clinical isolates; clinical isolate ROJO (SI),870 ± 1 nM
same,IC50,HIV-1 clinical isolates; clinical isolate VIHU (NSI),1210 ± 9 nM
same,IC50,HIV-1 clinical isolates; clinical isolate WEJO (SI),2180 ± 26 nM
same,IC50,HIV-1 clinical isolates; clinical isolate WOME (SI),410 ± 8 nM
